For experiment [1], the target named is T1, chondroitinase ABC (ChABC) (Proteus vulgaris, UniProt P59807, L125P). Kind of experiment: relative enzyme inhibition assay of ChABC by selected polysaccharide (chondroitin sulfate C substrate, absorbance at 232 nm). Format: biochemical. As to conditions: for Activity (apparent ChABC activity in presence of selected polysaccharide) / % rA (percentage of residual activity): 0.2% chondroitin sulfate C, 0.2% selected polysaccharide, 50 mM pH8 Tris HCl, 37° C., 20 min; for Activity (apparent ChABC activity in presence of selected polysaccharide): reference without polysaccharide 121 U/L; for % rA (percentage of residual activity): relative to assay without polysaccharide; for effect on ChABC enzyme activity (in words): equal amount of substrate (chondroitin sulfate C) and polysaccharide. From the text: There are several existing methods for quantitative study of protein-small molecule interactions such as differential scanning calorimetry, quartz crystal microbalance, fluorescence anisotropy, and the like. However, these methods require complex equipment, are expensive and time consuming, requiring protein immobilization or protein labeling. In order to save time and reduce costs, semi-quantitative assessment methods can be applied, such as enzyme inhibition assays. In the present invention, the relative binding affinity is evaluated by monitoring the inhibition of ChABC by the selected polysaccharide. The stronger the observed inhibitory effect, the higher the affinity between the ChABC and the polysaccharide. A more detailed experimental setup is shown in Example 1. […] Thus, heparin was identified as the most suitable ligand among the selected screened polysaccharides for constructing the affinity column.
In the present invention, it is necessary to identify molecules that have a similar structure to the substrate of ChABC but are inert to enzymatic degradation. In order to test polysaccharides that could actually bind to the active site of ChABC, a relative enzyme inhibition assay was conducted on the selected polysaccharide:
490 μL of the substrate solution was incubated at 37° C. for at least 15 minutes containing 0.2% chondroitin sulfate C, 0.2% selected polysaccharide and 50 mM pH8 Tris HCl buffer. 10 μL of ChABC with activity of about 100 U/L was incubated at 37° C. for at least 3 minutes. After incubation, the two solutions were gently mixed. The mixture was then incubated at 37° C. for 20 minutes to perform enzymatic degradation of chondroitin sulfate. After 20 minutes, the reaction was terminated by inactivating ChABC by heating at 100° C. for 2 minutes. In addition to inactivating the mixture immediately without incubation for 20 minutes, a blank control was performed in the same manner. The absorbance of the heat inactivated solution at 232 nm was then measured and the apparent activity was calculated as shown in Equation 1. The assay in the absence of selected polysaccharide was also conducted in the same manner as a reference.
[formula] • where • Abs=Difference in absorbance • =OD232nm in sample tubes−OD232nm in blank tubes • E=Millimolar extinction coefficient of unsaturated disaccharides from Chondroitin Sulfate C=5.5 • t=Reaction time=20 min • Vt=Total volume of the assay=0.5 mL • Vs=Volume of enzyme used=0.01 mL • DF=Dilution factor • 1000=Convert U/mL to U/L
[formula] • where • % rA=percentage of residual activity • A(poly)=the activity presence of selected polysaccharide • A(ref)=the […] of the assay without the presence of selected polysaccharide

Experiment [2] has as its target T1, chondroitinase ABC (ChABC). Kind of experiment: incubation of ChABC alone with heparin (change in absorbance, enzymatic degradation). Format: biochemical. As to conditions: ChABC incubated alone with heparin; no change in absorbance. From the text:
Therefore, immobilization of heparin as a ligand for affinity purification of ChABC is the most suitable choice among the selected polysaccharide derivatives.

“Also recorded” adds a separate entry of the source.

T1 sequence (P59807 25-1021 L125P): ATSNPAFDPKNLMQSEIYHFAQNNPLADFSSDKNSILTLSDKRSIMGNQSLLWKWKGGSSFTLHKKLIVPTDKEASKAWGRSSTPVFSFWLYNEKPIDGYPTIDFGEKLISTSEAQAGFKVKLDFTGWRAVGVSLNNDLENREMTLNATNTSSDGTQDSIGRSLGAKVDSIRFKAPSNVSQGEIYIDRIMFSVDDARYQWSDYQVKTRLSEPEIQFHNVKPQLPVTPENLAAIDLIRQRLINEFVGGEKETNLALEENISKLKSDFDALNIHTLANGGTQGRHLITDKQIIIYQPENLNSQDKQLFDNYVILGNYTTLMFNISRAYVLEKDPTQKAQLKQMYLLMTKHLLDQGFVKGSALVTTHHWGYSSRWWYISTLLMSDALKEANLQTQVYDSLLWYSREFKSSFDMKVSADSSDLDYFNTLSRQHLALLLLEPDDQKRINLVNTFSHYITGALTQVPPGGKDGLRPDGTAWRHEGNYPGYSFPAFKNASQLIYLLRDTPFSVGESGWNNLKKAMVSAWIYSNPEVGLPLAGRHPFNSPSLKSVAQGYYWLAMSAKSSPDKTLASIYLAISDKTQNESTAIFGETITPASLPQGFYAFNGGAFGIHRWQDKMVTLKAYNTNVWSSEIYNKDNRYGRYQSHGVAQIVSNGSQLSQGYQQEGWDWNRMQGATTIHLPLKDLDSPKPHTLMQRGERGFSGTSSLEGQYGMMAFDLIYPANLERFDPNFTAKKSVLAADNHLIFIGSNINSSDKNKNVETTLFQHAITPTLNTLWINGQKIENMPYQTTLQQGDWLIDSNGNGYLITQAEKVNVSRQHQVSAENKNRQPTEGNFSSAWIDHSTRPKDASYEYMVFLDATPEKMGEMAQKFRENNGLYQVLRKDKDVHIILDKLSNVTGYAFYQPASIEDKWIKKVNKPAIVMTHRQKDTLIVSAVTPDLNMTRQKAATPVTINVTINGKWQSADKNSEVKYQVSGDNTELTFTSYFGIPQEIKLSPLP

Consider Alginic acid, for which, in experiment [1], the “Activity (apparent ChABC activity in presence of selected polysaccharide)” value was found to be 119 U/L, the “% rA (percentage of residual activity)” value was 98% and the “effect on ChABC enzyme activity (in words)” value (shortened to “effect”) is listed as “no significant effect on enzyme activity”.

As to heparin, in experiment [1], the “Activity (apparent ChABC activity in presence of selected polysaccharide)” value is 5.1 U/L, the “% rA (percentage of residual activity)” value is recorded as 4.2% and the “effect” value is “almost completely inhibited ChABC activity; also recorded: strongest inhibitory effect on ChABC”. The “susceptibility to enzymatic degradation by ChABC” value in experiment [2] is reported as “not subject to the enzymatic degradation activity of ChABC”.

Take polygalacturonic acid: in experiment [1], the “Activity (apparent ChABC activity in presence of selected polysaccharide)” value is 117 U/L, the “% rA (percentage of residual activity)” value came out at 97% and the “effect” value was “no significant effect on enzyme activity”.

(Values after patent US10214738B2, “Production of high purity chondroitinase ABC” (priority 2017, dated 2019).)
